Results: ChEMBL document CHEMBL1137878, “Synthesis and evaluation of novel oxazoline MMP inhibitors” (Bioorg Med Chem Lett, 2004)

How the values were obtained:
[1] = molecular target: T1, Interstitial collagenase (Homo sapiens, UniProt P03956); experiment: Inhibitory activity against matrix metalloprotease-1; F denotes no activity was observed upto the concentration that fluorescence could be compensated for
T1 sequence (P03956 whole entry): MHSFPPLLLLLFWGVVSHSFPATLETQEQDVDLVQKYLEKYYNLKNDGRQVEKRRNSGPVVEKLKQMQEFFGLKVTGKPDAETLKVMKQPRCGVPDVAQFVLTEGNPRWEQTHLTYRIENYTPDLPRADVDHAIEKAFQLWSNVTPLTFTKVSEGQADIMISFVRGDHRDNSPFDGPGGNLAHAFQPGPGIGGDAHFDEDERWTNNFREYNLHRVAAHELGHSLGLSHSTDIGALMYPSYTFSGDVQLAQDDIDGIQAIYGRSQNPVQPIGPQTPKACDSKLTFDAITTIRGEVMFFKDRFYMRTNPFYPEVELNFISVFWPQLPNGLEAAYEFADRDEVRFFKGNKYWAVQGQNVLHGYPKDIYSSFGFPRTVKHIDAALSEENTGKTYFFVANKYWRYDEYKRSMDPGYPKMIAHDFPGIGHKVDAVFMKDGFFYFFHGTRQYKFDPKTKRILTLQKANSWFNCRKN

[2] = molecular target: T2, Matrix metalloproteinase-9 (Homo sapiens, UniProt P14780); experiment: Inhibitory activity against matrix metalloprotease-9; F denotes no activity was observed upto the concentration that fluorescence could be compensated for
[3] = molecular target: T3, Macrophage metalloelastase (Homo sapiens, UniProt P39900); experiment: Inhibitory activity against matrix metalloprotease-12
[4] = molecular target: T2, Matrix metalloproteinase-9; experiment: Inhibitory activity against matrix metalloprotease-9
[5] = molecular target: T1, Interstitial collagenase; experiment: Inhibitory activity against matrix metalloprotease-1; NA denotes no activity upto solubility limit
[6] = molecular target: T3, Macrophage metalloelastase; experiment: Inhibitory activity against matrix metalloprotease-12; NA denotes no activity upto solubility limit
[7] = molecular target: T4, 72 kDa type IV collagenase (Homo sapiens, UniProt P08253); experiment: Inhibitory activity against matrix metalloprotease-2; NA denotes no activity upto solubility limit
[8] = molecular target: T2, Matrix metalloproteinase-9; experiment: Inhibitory activity against matrix metalloprotease-9; NA denotes no activity upto solubility limit
[9] = molecular target: T1, Interstitial collagenase; experiment: Inhibitory activity against matrix metalloprotease-1
[10] = molecular target: T4, 72 kDa type IV collagenase; experiment: Inhibitory activity against matrix metalloprotease-2

T3 sequence (P39900 whole entry): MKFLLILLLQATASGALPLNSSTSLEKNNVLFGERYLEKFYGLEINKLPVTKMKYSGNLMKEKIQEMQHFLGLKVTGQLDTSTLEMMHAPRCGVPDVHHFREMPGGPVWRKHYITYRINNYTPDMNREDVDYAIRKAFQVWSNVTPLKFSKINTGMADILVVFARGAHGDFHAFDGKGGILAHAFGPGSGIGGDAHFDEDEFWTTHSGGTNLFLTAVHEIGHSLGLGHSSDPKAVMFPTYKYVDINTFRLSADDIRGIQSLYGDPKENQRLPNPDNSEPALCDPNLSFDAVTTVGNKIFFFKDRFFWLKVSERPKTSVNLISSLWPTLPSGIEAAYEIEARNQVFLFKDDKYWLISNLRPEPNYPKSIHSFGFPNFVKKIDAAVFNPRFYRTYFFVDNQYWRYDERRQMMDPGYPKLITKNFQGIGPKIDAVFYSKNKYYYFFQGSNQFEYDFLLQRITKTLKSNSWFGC
T2 sequence (P14780 whole entry): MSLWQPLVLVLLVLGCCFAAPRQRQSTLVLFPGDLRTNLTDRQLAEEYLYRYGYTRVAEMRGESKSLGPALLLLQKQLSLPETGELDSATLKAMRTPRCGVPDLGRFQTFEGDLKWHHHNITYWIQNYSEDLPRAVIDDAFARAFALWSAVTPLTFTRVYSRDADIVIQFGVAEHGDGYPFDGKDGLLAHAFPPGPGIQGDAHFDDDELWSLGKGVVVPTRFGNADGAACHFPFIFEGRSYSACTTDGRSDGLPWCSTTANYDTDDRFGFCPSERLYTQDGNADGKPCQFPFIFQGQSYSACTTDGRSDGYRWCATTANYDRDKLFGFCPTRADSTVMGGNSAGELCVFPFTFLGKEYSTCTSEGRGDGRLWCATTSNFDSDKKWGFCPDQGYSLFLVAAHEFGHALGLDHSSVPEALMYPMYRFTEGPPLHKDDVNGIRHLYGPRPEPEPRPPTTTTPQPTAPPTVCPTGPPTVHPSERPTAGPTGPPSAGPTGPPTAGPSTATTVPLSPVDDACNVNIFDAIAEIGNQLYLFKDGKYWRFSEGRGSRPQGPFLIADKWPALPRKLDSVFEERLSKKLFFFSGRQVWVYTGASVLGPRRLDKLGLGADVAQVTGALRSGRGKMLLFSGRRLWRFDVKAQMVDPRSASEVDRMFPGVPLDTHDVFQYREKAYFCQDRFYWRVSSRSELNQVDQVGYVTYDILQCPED
T4 sequence (P08253 whole entry): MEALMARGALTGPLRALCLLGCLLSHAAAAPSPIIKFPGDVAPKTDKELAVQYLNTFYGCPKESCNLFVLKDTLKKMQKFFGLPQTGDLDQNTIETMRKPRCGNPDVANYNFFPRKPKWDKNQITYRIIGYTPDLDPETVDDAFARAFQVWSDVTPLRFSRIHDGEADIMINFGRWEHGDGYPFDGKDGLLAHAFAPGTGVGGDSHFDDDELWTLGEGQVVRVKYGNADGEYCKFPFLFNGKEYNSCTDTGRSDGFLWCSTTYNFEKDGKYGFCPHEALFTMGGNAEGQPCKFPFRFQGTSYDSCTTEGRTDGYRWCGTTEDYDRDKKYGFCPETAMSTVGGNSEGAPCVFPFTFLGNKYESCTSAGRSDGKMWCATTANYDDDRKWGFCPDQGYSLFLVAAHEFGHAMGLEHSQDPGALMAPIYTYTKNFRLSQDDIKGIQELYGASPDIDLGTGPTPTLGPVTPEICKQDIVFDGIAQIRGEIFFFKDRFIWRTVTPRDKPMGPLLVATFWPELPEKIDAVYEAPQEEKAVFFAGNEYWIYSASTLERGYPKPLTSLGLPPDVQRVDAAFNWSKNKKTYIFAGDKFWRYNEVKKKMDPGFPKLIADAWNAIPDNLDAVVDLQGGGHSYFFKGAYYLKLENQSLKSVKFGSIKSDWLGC

| Ki [4] [µM] | Ki [5] | Ki [6] | Ki [7] | Ki [9] [µM] | Compound | other results |
| --- | --- | --- | --- | --- | --- | --- |
|  |  |  |  |  | C=C[C@@H]1OC(c2ccc([N+](=O)[O-])cc2)=N[C@H]1CO | Ki [1]: Fluorescence interfered with assay; Ki [2]: Fluorescence interfered with assay; Ki [3]: > 100 µM |
| > 2000 |  |  |  |  | C=C[C@@H]1OC(CCCCCCC)=N[C@H]1CO |  |
| 24 | No Activity |  |  |  | C=C[C@@H]1OC(c2ccc(-c3ccccc3)cc2)=N[C@H]1CO |  |
| > 2000 |  |  |  |  | C=C[C@@H]1OC(CCCCC)=N[C@H]1CO |  |
|  | No Activity | No Activity | No Activity |  | C=CC1=N[C@@H](CO)[C@H](C=C)O1 | Ki [8]: No Activity |
|  | No Activity |  | No Activity |  | C=C[C@@H]1OC(CCc2ccccc2)=N[C@H]1CO | Ki [8]: No Activity |
|  |  | No Activity | No Activity |  | C=C[C@@H]1OC(/C=C/c2ccc(-c3ccccc3)cc2)=N[C@H]1CO | Ki [8]: No Activity |
|  |  |  | No Activity | > 100 | C=C[C@@H]1OC(c2ccc(Cl)cc2)=N[C@H]1SC(C)=O |  |
| > 200 | No Activity | No Activity |  |  | C=C[C@@H]1OC(c2ccc(Cl)cc2)=N[C@H]1Sc1ccccc1 |  |
| 6 |  | No Activity | No Activity | > 500 | C=C[C@@H]1OC(Cc2ccccc2)=N[C@H]1CO |  |
| 81 |  | No Activity | No Activity | > 400 | C=C[C@@H]1OC(c2ccc(-c3ccccc3)cc2)=N[C@H]1SC(C)=O |  |
| 94 |  |  |  |  | C=C[C@@H]1OC(c2ccc(Br)cc2)=N[C@H]1Sc1ccccc1 |  |
|  | No Activity | No Activity | No Activity |  | C=C[C@@H]1OC(C2CCCCC2)=N[C@H]1CO | Ki [8]: No Activity |
|  | No Activity | No Activity | No Activity |  | C=C[C@@H]1OC(c2ccc(F)cc2)=N[C@H]1CO | Ki [8]: No Activity |
| 88 |  | No Activity | No Activity | > 200 | C=C[C@@H]1OC(c2ccc(Br)cc2)=N[C@H]1SC(C)=O |  |
| 9 | No Activity |  |  |  | C=C[C@@H]1OC(c2ccc(Br)cc2)=N[C@H]1CO | Ki [3]: > 300 µM; Ki [10]: > 600 µM |
| 94 |  | No Activity | No Activity | 92 | C=C[C@@H]1OC(/C=C/c2ccccc2)=N[C@H]1S |  |

| Ki [4] [µM] | Ki [5] | Ki [6] | Ki [7] | Ki [9] [µM] | Compound | other results |
| --- | --- | --- | --- | --- | --- | --- |
| 65 |  | No Activity | No Activity | 46 | C=C[C@@H]1OC(C#Cc2ccccc2)=N[C@H]1CO |  |
| > 4000 | No Activity |  |  |  | C=C[C@@H]1OC(c2ccccc2)=N[C@H]1CO | Ki [3]: > 2000 µM; Ki [10]: > 2000 µM |
| > 100 | No Activity |  |  |  | C=C[C@@H]1OC(/C=C/c2ccccc2)=N[C@H]1SC(C)=O | Ki [3]: > 300 µM |
| > 100 |  | No Activity | No Activity | > 100 | C=C[C@@H]1OC(c2ccc(Cl)cc2)=N[C@H]1S |  |
| > 100 |  |  |  | > 200 | C=C[C@@H]1OC(c2ccc(Br)cc2)=N[C@H]1S |  |
| 32 |  |  |  |  | C=C[C@@H]1OC(c2ccc(Oc3ccccc3)cc2)=N[C@H]1CO |  |
| > 100 |  |  |  | > 100 | C=C[C@@H]1OC(c2ccc(C)cc2)=N[C@H]1S | Ki [3]: > 300 µM; Ki [10]: 88 µM |
| 40 |  |  |  |  | C=C[C@@H]1OC(/C=C/c2ccccc2)=N[C@H]1CO |  |
| > 100 | No Activity | No Activity | No Activity |  | C=C[C@@H]1OC(c2ccc(C)cc2)=N[C@H]1SC(C)=O |  |
| 68 | No Activity | No Activity | No Activity |  | C=C[C@@H]1OC(c2ccc(C)cc2)=N[C@H]1CO |  |
|  |  | No Activity | No Activity | 64 | C=C[C@@H]1OC(c2ccc(C)cc2)=N[C@H]1Sc1ccccc1 |  |
| 22 |  | No Activity | No Activity | > 300 | C=C[C@@H]1OC(/C=C/c2ccc(Br)cc2)=N[C@H]1CO |  |
| 8 |  |  |  | 32 | C=C[C@@H]1OC(/C=C\C=C\c2ccccc2)=N[C@H]1CO | Ki [3]: 49 µM; Ki [10]: 153 µM |
| > 100 |  | No Activity | No Activity | > 100 | C=C[C@@H]1OC(/C=C/c2ccccc2)=N[C@H]1Sc1ccccc1 |  |
| 33 |  | No Activity |  | > 300 | C=C[C@@H]1OC(c2ccc(Cl)cc2)=N[C@H]1CO |  |
| > 100 | No Activity |  | No Activity |  | C=C[C@@H]1OC(c2ccc(-c3ccccc3)cc2)=N[C@H]1Sc1ccccc1 |  |
|  | No Activity | No Activity | No Activity |  | C=C[C@@H]1OC(c2ccc(OC)cc2)=N[C@H]1CO | Ki [8]: No Activity |
